The record followed here is patent US8007991B2, “Three-dimensional physiological matrices for oncological testing, and methods for their production and use” (priority 2006, dated 2011).

The assay relates to Patient Sample GS-640, kidney tissue (renal cell carcinoma). Description: Tumor fragment growth and invasion (cell migration) in three-dimensional gel matrix, 48-well plate chemotherapy screening. The following applies: 5 days treatment; for number of cells that have grown and invaded away from the solid tumor fragment / distance of cell migration away from the solid tumor fragment: 37 degrees Celsius; for number of cells that have grown and invaded away from the solid tumor fragment: 5% CO2, photomicrograph compared with untreated control (FIG. 5); for response to the drug (overall): renal cell carcinoma patient sample; for distance of cell migration away from the solid tumor fragment: 5% CO2, photomicrograph. Type of assay: cell-based, human. From the text:
FIGS. 1-8 are photographic and photomicrographic images which show, by way of example, use of the means and methods of the present invention with respect to a tissue sample removed from a patient. With respect to FIGS. 1-8, Patient Sample GS-640, comprising kidney tissue, was removed from the patient by a surgeon during surgery.
Tissue analysis and screening in accordance with the invention were requested by the surgeon, and proper consent was obtained from the patient prior to surgical removal of a sample quantity of tissue from the RHS Kidney. The patient was diagnosed with renal cell carcinoma. A tissue sample of approximately 1 gram in quantity was removed from the patient during surgery, and was placed into a 25 ml sample jar, and immersed in sterile saline. The tumor tissue was kept at 4 degrees centigrade until processed for the screening of therapeutic compounds in accordance with the means and methods of the invention. All procedures were performed under sterile conditions in a bio-safety laminar flow hood.
FIG. 1 is a photographic image showing the mechanical division of the sample into portions to be tested. The sample has been prepared by dissecting away any non viable tissue and blood prior to mincing into 1-2 mm pieces using sterile disposable scalpels.
FIG. 2 is a photographic image showing tumor sample portions which have been placed into each well of a 48 well plate, and been submersed in a gel matrix mixture according to the invention. After insertion of the portions, the mixture was allowed to form into a gel at room temperature for approximately 30 minutes. Once the gel formed around the fully immersed tumor fragments, nutrient rich media was added as a liquid overlay that permeated the entire gel and tumor fragment.
Each different chemotherapy and or dose of chemotherapy was added to a set of 6 wells out of the 48-well plate. A total of 7 different chemotherapies were assessed in this plate. One set of six wells were not treated with drug and thus acted as ‘control conditions’ for tumor fragment growth and invasion. Each of the eight vertical lanes containing six separate wells was marked with a symbol for each chemotherapy/dose used and noted correspondingly on data collection sheets. […] The plates were then placed in a conventional 37 degree Celsius incubator at 5% CO2.
This image is thus representative of all wells at Day 0 with or without chemotherapeutics. Images were made with a 400× magnification phase contrast micrograph using ZEISS camera specs.
Noteworthy is the halo of cells and increased cell density as compared with the results shown at Day 3 of the test. The lines on the images have been drawn to show the distance measurements within which approximately 95% of the migrating cells have migrated away from the margins of the tissue sample.

Turning to `N.N.[Cl][Pt][Cl]` [Cisplatin], the “number of cells that have grown and invaded away from the solid tumor fragment” value (shortened to “number”) is “identical in appearance and cell numbers to the control sample”; the “response to the drug (overall)” value is “failed chemotherapy”.

Take `CC(=O)O[C@@]12CO[C@@H]1C[C@H](O)[C@@]1(C)C(=O)[C@H](O)C3=C(C)[C@@H](OC(=O)[C@H](O)[C@@H](NC(=O)OC(C)(C)C)c4ccccc4)C[C@@](O)([C@@H](OC(=O)c4ccccc4)[C@H]21)C3(C)C` [Docetaxol, Docetaxel]: the “distance of cell migration away from the solid tumor fragment” value is listed as “longer migratory distance than treatment with Taxol”; the “number” value was “fewer number of invading cells than the control”; the “response to the drug (overall)” value is on record as “moderate response”.

Consider `CC(=O)O[C@H]1C(=O)[C@@]2(C)[C@H]([C@H](OC(=O)c3ccccc3)[C@]3(O)C[C@H](OC(=O)[C@H](O)[C@@H](NC(=O)c4ccccc4)c4ccccc4)C(C)=C1C3(C)C)[C@]1(OC(C)=O)CO[C@@H]1C[C@@H]2O` [Taxol, Paclitaxel], for which the “distance of cell migration away from the solid tumor fragment” value is “a drop in both the distance and the number of cells”; the “number” value was “a drop in both the distance and the number of cells”.
